# Source: a melting point compilation (Tetko et al.; mined from patent text by program, amines drawn as free bases though some values may be those of a salt)
# Residues, ends and D or L forms follow the SMILES beside them. *: point of attachment. Boc = CC(C)(C)OC(=O)*
row,Compound,melting point [°C]
1,COc1ccc(N2CCN(c3c(C)c(C)c4c(c3C)C(N3CCN(Cc5ccccc5)CC3)C(C)(C)O4)CC2)cc1 (stereo not given),112 to 116
2,CCOc1cc(Cl)ccc1C=NNC(=N)NN=Cc1ccc(Cl)cc1OCC,180 to 182
3,COc1cc(Nc2nccc(-c3ccc(N4CCN[C@@H](C)C4)nc3)n2)cc(OC)c1OC,139 to 140
4,O=C1c2c(Br)cccc2S(=O)(=O)N1CCl,157 to 159
5,Cc1nc(-c2cccnc2)sc1-c1ccnc(Nc2ccc(N3CCSCC3)cc2)n1,191 to 193
6,CC1=C(C(=O)OCOC(=O)C(C)(C)C)C(C)C(C(=O)OCOC(=O)C(C)(C)C)=C(C)N1,82 to 83
7,CCOc1cc(C(F)(F)F)nc(N)n1,114 to 116
8,CC1CC(=O)NN=C1c1ccc(-n2cncn2)nc1 (stereo not given),256 to 257
9,CSc1nc(N)nc(Cl)c1-c1ccc(Cl)cc1Cl,201 to 202
10,CN1C(=O)N2C(=NC1(C)C)N(C(=O)NC1CCCCC1)c1ccccc12,114 to 116
11,Nc1nc(N)c2c(ccc3c2ccn3Cc2ccc(OC(F)(F)F)cc2)n1,205 to 208
12,Cc1cc(C)c(Nc2nc(C)ccc2S(=O)(=O)c2ccc(OCc3ccc(C#N)cc3)cc2)c(C)c1,208 to 210
13,COC(=O)c1cc(-n2c(=O)c3c(n(C)c2=O)CCC3)c(F)cc1Cl,138 to 141
14,NC(=O)c1nc(-c2ccccn2)nc2c1[nH]c(=O)n2-c1ccccc1,347 to 349
15,C#Cc1cccc(Nc2ncnc3ccc(S(=O)(=O)n4ccc(C=CC(=O)Nc5ccccc5NC(=O)OC(C)(C)C)c4)cc23)c1,146 to 150
16,OC[C@@H]1O[C@H]1C#CC#CC#Cc1ccccc1 (relative stereo),68 to 70
17,N#Cc1cnn(-c2ccccn2)c1SCc1ccccc1,110 to 115
18,CS(=O)(=O)c1ccc(-c2cnn(Cc3ccccc3)c(=S)c2-c2ccc(F)cc2)cc1,88 to 90
19,CCc1cc2c3c(cc(C)c2[nH]c1=O)CC(C)(CN=[N+]=[N-])O3 (stereo not given),211 to 212
20,Cc1cccnc1-c1cccc(OC2SCC(O)C(O)C2O)c1 (stereo not given),97 to 109
21,CONS(=O)(=O)c1ccc(Cl)c(Cl)c1,146 to 147
22,Cc1cc(NC(=O)c2cnccn2)nc(C)c1[N+](=O)[O-],158
23,O=[N+]([O-])c1cc(CCl)cc([N+](=O)[O-])c1CCl,106
24,Cc1cccc2c1N(CC(=O)N1CC3CCC(CC3)C1)C(=O)C(NC(=O)Nc1cccc(C(=O)OC(C)(C)C)c1)N=C2c1ccccc1F (stereo not given),230 to 232
25,O=C1CCCC2=C1C(c1ccc(Br)s1)C1=C(CCS1)N2 (stereo not given),> 250
26,CC1(Cc2ccccc2)OC(=O)Nc2ccc(-c3cccc(Cl)c3)cc21 (stereo not given),187 to 188

row,Compound,melting point [°C]
1,CS(=O)(=O)c1ccc(Cl)cc1C1NC(=O)NC1=O (stereo not given),238 to 240
2,CCCNCC(O)c1cccc(Cl)c1 (stereo not given),69.5 to 71
3,O=C(NOC(=O)C(F)(F)F)C(F)(F)F,40 to 50
4,S=C1NCC2c3ccccc3Cc3ccccc3N12 (stereo not given),222 to 224
5,Cc1cc(I)ccc1Nc1c(-c2nnc(S)o2)ccc(F)c1F,232 to 233
6,CCOC(=O)c1cnc(N2CCSCC2)nc1Cl,81 to 83
7,CSc1cc2c(N3CCc4ccc(Cl)cc43)ncnc2cc1Cl,167 to 168
8,Cn1c2c(c(=O)n3nc(-c4ccccc4)cc13)CN(C1CCCCC1)C2=O,276 to 279
9,O=c1[nH]cnc2cc(Cl)c(Oc3ccc(Cl)cc3)cc12,250 to 252
10,CCCCOCCOc1ccc(-c2ccc3c(c2)C=C(C(=O)Nc2ccc(SCc4ncon4)cc2)CCN3CC(C)C)cc1,112 to 115
11,Cc1cc(=O)[nH]c2ccc(OCCCN3CCN(Cc4ccc(Cl)cc4)CC3)cc12,195 to 197
12,OC1CSC(Oc2cccc(-c3cccnc3Cl)c2)C(O)C1O (stereo not given),130
13,Cc1cc2[nH]c3cc(Cl)ncc3c(=O)n2n1,> 300
14,CC(C)Cn1c(=O)n(C)c(=O)c2c(SCC(C)O)c(Cc3cccc4ccccc34)sc21 (stereo not given),126 to 128
15,CN1CCN(c2c(F)c(N)c3c(=O)c(C(=O)O)cn(C4CC4)c3c2F)CC1,247 to 248
16,Cc1nc2c(O)c(CC[C@@H](O)c3ccccc3)c(C(=O)N(C)C)cc2n1COCC[Si](C)(C)C,142 to 143
17,O=S(=O)(Nc1ccc2c(OCc3ccc(OC(F)(F)F)cc3)cccc2c1)C(F)(F)F,80 to 82
18,CCN1C(=O)C(C)(C)C(=O)N(C)c2cc(CN(CCN3C(=O)CCc4ccccc43)Cc3cccnc3C)ccc21,130 to 131
19,Cc1oc(-c2ccc3ccccc3c2)nc1COc1ccc(/C=C/C=O)cc1,179 to 180
20,CCCCCCCCCCCCCC(C)Oc1c(I)cc(I)cc1I (stereo not given),56 to 58
21,CCCCCS(=O)(=O)NC(=O)CCc1cc(OCc2nnc(C)o2)nn1Cc1ccc(Cl)cc1Cl,156 to 158
22,O=c1[nH]c2cccc3c2n1CCC3,216
23,CN1C(=O)CC[C@]2(C)c3ccc(Sc4nc5c(Cl)cccc5s4)cc3CC[C@@H]12,207 to 209
24,c1ccc(-c2cc3ccccc3o2)nc1,86 to 87
25,CCC[C@H]1CC[C@H](c2ccc(CCc3ccc(C#N)cc3)cc2)CC1,36

# Further lines, results first:
row,melting point [°C],Compound
1,73 to 75,CCN(CCc1c[nH]c2ccccc12)C(=O)CCCC(=O)OC
2,141,COC(=O)c1cccc(-c2nnc(-c3ccccc3N)cc2CCCO)c1
3,160 to 162,CS(=O)(=O)CCC(=O)Nc1ccc(OCC(O)CO)cc1 (stereo not given)
4,160 to 163,COc1ccc(-c2c(S(C)(=O)=O)ccc(C(=O)c3cnn(C(C)(C)C)c3OC(C)=O)c2C)cc1
5,148 to 150,CC(C)(C)OC(=O)Nc1ccc(-c2cccc(F)c2)cc1NC(=O)CC(=O)c1cccc(C#N)c1
6,187,COCc1nc(C(C)(C)O)c(C(=O)O)n1Cc1ccc(-c2ccccc2-c2nnn[nH]2)cc1
7,162 to 172,CCOC(=O)c1c(Nc2ccccc2OC)n[nH]c1C
8,202 to 203,Cc1cccc(C(=O)O)c1-c1ccc(C(F)(F)F)cc1
9,232 to 235,CC(C)NCC(O)COc1ccc2cn[nH]c(=O)c2c1 (stereo not given)
10,51 to 52,CCCCc1c(C=O)cc(OC)c2ccccc12
11,139 to 144,Nc1ccccc1C(=O)Nc1ccc(Br)cc1
12,67 to 69,COC(=O)C=C(CC(=O)OC)NCc1ccccc1
13,181 to 182,N=C(Nc1ccc(CCNC(=O)C(F)(F)F)cc1)c1cccs1
14,200 to 202,Cc1ccc2c(=O)c(OC(=O)c3ccccc3)cn(C)c2c1
15,138 to 140,CC(C)C(=O)c1ccc2c(c1)CC(N1C(=O)c3ccccc3C1=O)C2 (stereo not given)
16,104 to 105,CCOC(=O)c1c(O)c2ccc(F)cc2c(=O)n1CC(C)C
17,35 to 37,COC(C)c1cc([N+](=O)[O-])ccc1C (stereo not given)
18,137 to 141,COc1cc2c3ccc(OC)c(OC)c3n(C(=O)c3ccc4ccccc4c3)c2cc1OC
19,116,CCCCCCc1ccc(C(=O)Nc2ccc3cc(CN4CCCC4)cnc3c2C)cc1
20,255,COC(=O)c1ccc(C(O)(c2ccc3[nH]c(=O)cc(-c4cccc(Cl)c4)c3c2)c2cncn2C)cc1 (stereo not given)
21,145,O=C(CC(O)c1ccccc1)NCc1ccccc1[N+](=O)[O-] (stereo not given)
22,160 to 161,O=C(c1ccc(Cl)cc1)c1c(N2C(=O)c3ccccc3C2=O)sc(-c2ccccc2)c1CBr
23,115 to 120,CC(C)(C)OC(=O)NCC(=O)NCC(=O)NCC(=O)O (Boc-Gly-Gly-Gly-OH)
24,60 to 62,CCOC(=O)CC(=Nc1cc([N+](=O)[O-])ccc1Cl)OC
25,99 to 101,COC(=O)CCc1ccc(N2CCN(CCCCC#N)C2=O)cc1

row,melting point [°C],Compound
1,130 to 132,O=Cc1cc(Cc2cccnc2)ccc1O
2,95 to 96,CC(C)(C)OC(=O)COc1ccc2c3c(ccc2c1)OC(=O)CC3
3,167 to 175,O=C(NCCNC1CCC(c2ccc3[nH]c(=O)oc3c2)CC1)c1ccccc1 (stereo not given)
4,65.5 to 66.5,Cc1cc(C)c(C(=O)c2ccc(Cl)cc2)c(C)c1
5,156 to 157,COc1ccc(-c2csnn2)cc1C=O
6,210 to 212,CNC(=O)CCCC1CCN(Cc2cnc3c(C)c(NC(=O)c4ccc(-c5ccc(F)cc5)cc4)ccc3c2)CC1
7,154 to 155,O=C(O)c1cnn(-c2ccc(Cl)cc2Cl)c1C(F)(F)F
8,125,COc1ccc(CCn2cnc3oc(C)c(C)c3c2=N)cc1
9,169 to 172,Cc1cc2c(cc1C(=O)c1ccc(C(O)=NOCc3ccccc3)cc1)C(C)(C)CCC2(C)C
10,201,COc1ccc2ccc(NC(=O)c3ccco3)nc2n1
11,246 to 248,CC(C)n1nc(-c2sc(NC(=O)c3ccc(CN(C)C)cc3)nc2-c2ccccc2)ccc1=O
12,182 to 186,O=C(O)c1ccc(Br)cc1-c1cc(Cl)cc(Cl)c1
13,161 to 162,O=C(CC(O)(c1cc(Cl)cc(Cl)c1)C(F)(F)F)c1ccc(-n2ccnc2)cc1 (stereo not given)
14,175 to 177,CC(Oc1ncn(-c2ccc(C(F)(F)F)cc2)n1)C(=O)NC1CC1 (stereo not given)
15,159,CC1(C)C(=O)N(C(=O)NCC2(O)CCN(CC3(C(=O)O)CCC3)CC2)c2cc(F)ccc21
16,95.5 to 98,CCCCOC(=O)[C@H]1CN(c2ccc(N3CCSCC3)cc2)C(=O)O1
17,126 to 128,CN(C)c1ccc(C(=O)Cc2cccc(Cl)c2)cc1
18,194,COc1ccc(C(C)=O)cc1C(C)=CC(=O)O
19,191 to 192,Cc1cc(OCc2ccc(-c3ccc(C(F)(F)F)cc3)nn2)ccc1OC(C)(C)C(=O)O
20,154 to 155,Cc1ccc(S(=O)(=O)Nc2ccc(CCCC(=O)O)nc2)cc1
21,190 to 193,CCOC(=O)C(=O)Nc1cc(C)c(C)cc1C(N)=O
22,160 to 162,CC(C)(C)c1cc(C(=O)Nc2ccc(C(=O)O)cc2)cc(C(C)(C)C)c1O
23,210 to 212,Oc1ccc(-c2nc(Br)c[nH]2)cc1
24,154 to 156,CC(C)(CO)c1ccc(C(=O)O)cc1
